From patent publication US20070292888A1, “Methods for Measuring Enzyme Activities in Cells, Blood, Tumors and Tissues” (GEN-PATH PHARMACEUTICALS, INC., priority 2004, published 2007)

Biological target: T1, alpha-ketoglutarate dehydrogenase (kGDH) (Mus musculus, UniProt Q60597)
T1 construct: from tissue; host or cells: mouse brain, blood, tumor and other organs (crude lysates)
T1 sequence (Q60597 41-1023): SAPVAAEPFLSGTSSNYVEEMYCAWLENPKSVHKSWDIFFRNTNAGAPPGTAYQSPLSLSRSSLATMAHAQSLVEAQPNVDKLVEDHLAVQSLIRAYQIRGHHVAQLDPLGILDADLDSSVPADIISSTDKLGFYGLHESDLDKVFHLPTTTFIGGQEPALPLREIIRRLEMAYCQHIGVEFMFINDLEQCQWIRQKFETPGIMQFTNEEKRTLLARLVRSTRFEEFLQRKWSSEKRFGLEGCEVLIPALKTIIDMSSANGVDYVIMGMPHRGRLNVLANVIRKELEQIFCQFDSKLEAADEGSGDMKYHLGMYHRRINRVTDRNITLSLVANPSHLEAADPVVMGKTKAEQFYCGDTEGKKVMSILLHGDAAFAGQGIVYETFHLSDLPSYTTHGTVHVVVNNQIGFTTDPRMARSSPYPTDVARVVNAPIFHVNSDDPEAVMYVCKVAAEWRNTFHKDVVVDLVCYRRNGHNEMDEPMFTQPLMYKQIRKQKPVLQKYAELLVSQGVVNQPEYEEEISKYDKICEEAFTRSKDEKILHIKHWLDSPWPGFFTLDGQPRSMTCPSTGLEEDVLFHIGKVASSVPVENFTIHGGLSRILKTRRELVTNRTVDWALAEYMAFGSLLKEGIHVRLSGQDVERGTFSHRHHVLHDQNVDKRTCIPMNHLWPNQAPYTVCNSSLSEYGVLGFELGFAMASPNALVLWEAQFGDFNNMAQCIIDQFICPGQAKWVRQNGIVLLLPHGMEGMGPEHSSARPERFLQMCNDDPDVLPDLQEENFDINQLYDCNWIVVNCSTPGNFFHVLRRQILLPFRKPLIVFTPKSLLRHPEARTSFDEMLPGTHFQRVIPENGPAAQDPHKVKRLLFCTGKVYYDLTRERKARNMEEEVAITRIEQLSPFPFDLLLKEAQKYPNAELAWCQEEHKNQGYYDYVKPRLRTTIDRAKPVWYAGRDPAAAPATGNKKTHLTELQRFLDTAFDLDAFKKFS
T1 sequence (Q9D2G2 69-454 partner): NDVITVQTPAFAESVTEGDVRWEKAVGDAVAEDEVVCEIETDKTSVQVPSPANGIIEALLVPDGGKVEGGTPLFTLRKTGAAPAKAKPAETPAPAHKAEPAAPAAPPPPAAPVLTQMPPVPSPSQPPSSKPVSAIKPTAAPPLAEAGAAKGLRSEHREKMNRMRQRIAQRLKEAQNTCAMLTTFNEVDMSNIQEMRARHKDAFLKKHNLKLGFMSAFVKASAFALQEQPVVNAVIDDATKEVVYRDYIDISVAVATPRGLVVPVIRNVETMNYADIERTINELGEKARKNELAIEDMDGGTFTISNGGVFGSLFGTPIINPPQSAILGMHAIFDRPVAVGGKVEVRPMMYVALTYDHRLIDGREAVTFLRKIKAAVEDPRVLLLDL
T1 sequence (O08749 36-509 partner): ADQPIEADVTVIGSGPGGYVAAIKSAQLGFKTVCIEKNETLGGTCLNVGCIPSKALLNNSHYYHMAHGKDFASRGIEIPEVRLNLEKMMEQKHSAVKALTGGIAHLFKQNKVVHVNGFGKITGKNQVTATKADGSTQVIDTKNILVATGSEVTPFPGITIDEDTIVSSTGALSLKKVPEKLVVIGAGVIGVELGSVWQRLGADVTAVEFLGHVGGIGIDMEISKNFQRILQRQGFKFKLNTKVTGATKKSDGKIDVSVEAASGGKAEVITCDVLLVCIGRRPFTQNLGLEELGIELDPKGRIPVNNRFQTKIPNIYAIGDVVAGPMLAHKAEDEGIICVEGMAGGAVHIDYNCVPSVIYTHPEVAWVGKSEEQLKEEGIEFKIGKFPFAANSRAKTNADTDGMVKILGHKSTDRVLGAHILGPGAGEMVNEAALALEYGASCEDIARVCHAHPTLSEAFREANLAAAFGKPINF
Experiment: alpha-ketoglutarate dehydrogenase activity in tissues of treated mice (fluorescence NADH assay)
Format: in vivo
Protocol: Blood samples from mice were taken (40 μl whole blood) serially or from mice sacrificed at the end of the experiment. Tissues, such as tumors (e.g. from implantation, xenograft, or arising spontaneously), brain, heart, kidney, liver, lung and spleen were taken and flash frozen in liquid nitrogen or on dry ice and stored in −80° C. until time of assay. Four volumes of cold lysis buffer (20 mM HEPES, pH 7.5, 1 mM EDTA, 0.2 g/l Triton X-100® and 0.2 g/L sodium deoxycholate, supplemented with 1 mM DTT and 1 mM PMSF just before use) were added to the blood, which was dissolved by vortexing. For blood that was frozen before coagulation, a clear lysate was obtained. If coagulation occurred, homogenization was used as described below for tissue. Tissues were suspended in lysis buffer in 10 ml round bottom tubes and homogenized with PowerGen 125® (Fisher Scientific) for four seconds at highest power while submerged in an ice-water bath. This step was repeated after a few seconds, as necessary. […]
Each reaction was monitored for the appearance of NADH (for transketolase, alpha-ketoglutarate dehydrogenase, pyruvate dehydrogenase) or NADPH (for glucose-6-phosphate dehydrogenase) at room temperature in a fluorescent plate reader with excitation at 340 nm and emission at 470 nm in kinetic mode. The velocity was determined by the slope of the initial linear range of increasing fluorescence, expressed in fluorescent units (FU)/min. The protein concentration in the lysate was determined using Bradford assays (BioRad) with BSA as a standard. […]
To investigate the amount of in vivo enzyme inhibition following treatment with an inhibitor, we administered a single dose of N3PT (100 mg/kg, intraperitoneally [i.p.]) and blood, spleen and brain samples were collected at various times from 0-120 hours after dosing. The enzymatic activities were determined as described in Example 1. TK activity was measured in blood and spleen. Because TK activity in the brain is below the detection limit of the assay, kGDH activity was measured in brain samples. […]

kGDH activity in blood (11 days i.p. twice per day, blood): obliterated | inhibition of brain kGDH activity (single dose 100 mg/kg i.p., 0-120 hours): No significant inhibition
Compound: Cc1ccc(C[n+]2csc(CCO)c2C)c(N)n1 [N3PT, 3-[(2-amino-6-methyl-3-pyridinyl)methyl]-5-(2-hydroxyethyl)-4-methyl thiazolium]
brain penetration (after a single dose 100 mg/kg i.p., inferred from brain kGDH activity): little or no significant brain penetration
